Reference: patent publication US20210162050A1, “TOPICAL FORMULATIONS BASED ON IONIC SPECIES FOR SKIN TREATMENT” (The Regents of the University of California, priority 2016, published 2021)

How the values were obtained:
[1] = Octanol-water partitioning coefficients of cation paired hyaluronic acid (HA); type: physicochemical; settings: cation paired with HA
Experimental: 5 mL ddH2O may be mixed overnight at room temperature with 5 mL octanol. A complex containing a macromolecular anion complexed with sodium ions or with cations with alkyl chains is then added to the mixture and again allowed to mix overnight at room temperature in the dark. After overnight incubation, the solution is centrifuged to separate the octanol layer and water layer. The concentration of the macromolecular anion present in each layer is quantified by UV-Vis spectroscopy, or fluorescence spectroscopy, using, for example, a SAFIRE, XFLUOR4, V4.50 microplate reader (Tecan Group Ltd, Morrisville, N.Y.). For detection of siRNA, the fluorescence detection may be performed at an excitation of 485 nm and an emission of 520 nm, and the method may be validated for linearity, accuracy, and precision. Log Po/w may be calculated as the logarithm of the ratio of fluorescence in the octanol layer compared to the water layer.
Cation paired HA was prepared according to methods described in Example 1.

HEKa cells = assay: Biocompatibility in cell culture, MTT Cell Proliferation Assay; type: cell-based, human; settings: equal concentrations, 4 hours; differences not statistically significant (p >0.05)
Experimental: All cell culture materials were acquired from Life Technologies (Grand Island, N.Y.). Human adult epidermal keratinocytes were cultured in EpiLife Medium supplemented with Human Keratinocyte Growth Supplement, 25 U/mL penicillin, 25 μg/mL streptomycin, and 50 μg/mL neomycin. Cultures were grown at 37° C. with 5% CO2.
Cells were seeded in a 96-well microplate (Corning Inc., Corning, N.Y.) and were allowed to attach and proliferate. Once cells reached ˜80% confluency, the media was removed and FAM-siRNA, robed-FAM-siRNA, or benzyl dimethyl alkyl ammonium chloride salts in media was added. Media alone was used as a control. Cells were incubated with test solution for 4 hours at 37° C. and 5% CO2. After incubation, test solutions were removed, cells were washed with HBSS, and fresh media was added to each well. Cells were allowed to proliferate overnight before being assessed for viability using the MTT Cell Proliferation Assay (ATCC, Manassas, Va.). Viability was determined according to the manufacturer's recommended protocol using a SAFIRE, XFLUOR4, V4.50 microplate reader (Tecan Group Ltd, Morrisville, N.Y.).

[2] = chloride salt; Hansch et al. 1995; cited from earlier work

| Compound | LogPo/w [1] | toxicity of free salts versus robed with siRNAs (HEKa cells) | Log Po/w, Chloride [2] |
| --- | --- | --- | --- |
| C[N+](C)(C)CCO | −3.32 | – | – |
| CCCCCCCCCCCCCC[N+](C)(C)C.[Br-] | 2.14 | – | – |
| CCCCCCCC[N+](C)(C)Cc1ccccc1 [BDOA chloride, benzyl dimethyl octyl ammonium] | – | more toxic as free salts | – |
| CCCCCCCCCCCCCCCCCC[N+](C)(C)Cc1ccccc1 [BDSA chloride, benzyl dimethyl stearyl ammonium] | – | more toxic as free salts | 3.23^3 |
| CCCCCCCCCCCCCC[N+](C)(C)Cc1ccccc1 [BDTA chloride, benzyl dimethyl tetradecyl ammonium] | – | more toxic as free salts | 1.81^2 |
